In the NIST ThermoML archive (doi:10.1021/je700414c):

Assay: excess molar enthalpy (molar enthalpy of mixing); xn = mol fraction of the nth substance listed
Conditions: 303.15 K, 101 kPa, Liquid

CNC=O [N-methylformamide] + Cc1ccccc1
Conditions	excess molar enthalpy [kcal/mol]
x1 = 0.1531	0.0975
x1 = 0.1852	0.102
x1 = 0.2625	0.11
x1 = 0.3018	0.112
x1 = 0.3404	0.115
x1 = 0.3983	0.115
x1 = 0.4643	0.116
x1 = 0.4821	0.114
x1 = 0.5253	0.11
x1 = 0.5951	0.103
x1 = 0.6171	0.102
x1 = 0.645	0.0961
x1 = 0.7416	0.0765
x1 = 0.8178	0.0574
x1 = 0.9166	0.0304

CNC(C)=O [N-methylacetamide] + Cc1ccccc1
Conditions	excess molar enthalpy [kcal/mol]
x1 = 0.1142	0.0619
x1 = 0.2405	0.0619
x1 = 0.2954	0.0571
x1 = 0.377	0.0528
x1 = 0.4002	0.0521
x1 = 0.4365	0.0478
x1 = 0.4708	0.0442
x1 = 0.5227	0.0428
x1 = 0.5843	0.039
x1 = 0.6502	0.0301
x1 = 0.7076	0.0253
x1 = 0.7798	0.0179
x1 = 0.9016	0.00741

CNC(C)=O [N-methylacetamide] + Cc1ccc(C)cc1
Conditions	excess molar enthalpy [kcal/mol]
x1 = 0.1224	0.0667
x1 = 0.1703	0.0696
x1 = 0.2407	0.0705
x1 = 0.3474	0.0705
x1 = 0.4018	0.0679
x1 = 0.4704	0.0624
x1 = 0.6138	0.0514
x1 = 0.7126	0.0402
x1 = 0.7529	0.0366
x1 = 0.8617	0.0198

CNC(C)=O [N-methylacetamide] + Cc1cc(C)cc(C)c1
Conditions	excess molar enthalpy [kcal/mol]
x1 = 0.1463	0.0817
x1 = 0.2448	0.0927
x1 = 0.3271	0.103
x1 = 0.4098	0.105
x1 = 0.4989	0.104
x1 = 0.5612	0.0978
x1 = 0.6649	0.0837
x1 = 0.7283	0.0758
x1 = 0.8071	0.0607
x1 = 0.884	0.0421

CNC(C)=O [N-methylacetamide] + c1ccccc1
Conditions	excess molar enthalpy [kcal/mol]
x1 = 0.0848	0.0511
x1 = 0.1579	0.0562
x1 = 0.2196	0.0576
x1 = 0.2809	0.0564
x1 = 0.3924	0.0516
x1 = 0.4282	0.0464
x1 = 0.4628	0.0421
x1 = 0.495	0.0392
x1 = 0.5438	0.0344
x1 = 0.567	0.0335
x1 = 0.6331	0.0294
x1 = 0.766	0.0172
x1 = 0.8432	0.0124
x1 = 0.8931	0.00837

CNC=O [N-methylformamide] + c1ccccc1
Conditions	excess molar enthalpy [kcal/mol]
x1 = 0.0011	0.00263
x1 = 0.0019	0.00454
x1 = 0.1401	0.081
x1 = 0.2247	0.0918
x1 = 0.2851	0.0968
x1 = 0.3412	0.0994
x1 = 0.372	0.101
x1 = 0.428	0.0997
x1 = 0.4525	0.0978
x1 = 0.5333	0.0927
x1 = 0.6012	0.0837
x1 = 0.6365	0.0796
x1 = 0.7237	0.065
x1 = 0.8274	0.0425

CNC=O [N-methylformamide] + Cc1ccc(C)cc1
Conditions	excess molar enthalpy [kcal/mol]
x1 = 0.0589	0.0696
x1 = 0.0809	0.0789
x1 = 0.1371	0.105
x1 = 0.648	0.117
x1 = 0.7042	0.105
x1 = 0.7619	0.0911
x1 = 0.8196	0.0722
x1 = 0.8715	0.0533
x1 = 0.9536	0.0241
